From patent US20230263822A1, “MODULATION OF FACTOR 11 EXPRESSION” (Ionis Pharmaceuticals, Inc., priority 2008, published 2023)
Strand notation (5' to 3'): a small letter for the sugar, then the base; units joined by * are phosphorothioate-linked, units joined directly phosphodiester-linked; [ ] holds rarer units or linkages, { } end groups; capitals alone tell only the bases. e = 2'-O-(2-methoxyethyl) (MOE); [5mC] = 5-methylcytosine; d = 2'-deoxy (DNA)

Columns and labels:
[1] = parameters: species or system CD1 mice; conditions: mouse, in vivo
Description: Five mice from each group were sacrificed 3 days, 28 days and 56 days following the final dose. Livers were harvested for analysis.
The concentration of the full-length oligonucleotide as well as the total oligonucleotide concentration (including the degraded form) was measured. The method used is a modification of previously published methods (Leeds et al., 1996; Geary et al., 1999) which consist of a phenol-chloroform (liquid-liquid) extraction followed by a solid phase extraction. An internal standard (ISIS 355868, a 27-mer 2′-O-methoxyethyl modified phosphorothioate oligonucleotide, […], designated herein as SEQ ID NO: 270) was added prior to extraction. […] Half-lives were then calculated using WinNonlin software ([…]).
The results are presented in Tables 68 and 69, expressed as μg/g liver tissue.

human Factor 11 mRNA = experiment: Dose-dependent inhibition of human Factor 11 in HepG2 cells, electroporation 625-20,000 nM (Example 5); type: cell-based; conditions: ~16 hours
Description: The gapmers were also transfected via electroporation and their dose dependent inhibition of human Factor 11 mRNA was measured. Cells were plated at a density of 20,000 cells per well and transfected via electroporation with 625 nM, 1250 nM, 2500 nM, 5,000 nM, 10,000 nM, and 20,000 nM concentrations of antisense oligonucleotide, as specified in Table 12. After a treatment period of approximately 16 hours, RNA was isolated from the cells and human Factor 11 mRNA levels were measured by quantitative real-time PCR. Human Factor 11 primer probe set RTS 2966 was used to measure mRNA levels. Factor 11 mRNA levels were adjusted according to total RNA content, as measured by RIBOGREEN. Results are presented as percent inhibition of human Factor 11, relative to untreated control cells.

[2] = Tolerability in CD1 mice: organ weight (Example 33); type: in vivo; conditions: 50 mg/kg s.c. twice a week, vs PBS control, normalized to body weight
Description: Three days after the last dose was administered to all groups, the mice were sacrificed.

[3] = system: IL-1β, IL-6, IFN-γ, TNF-α, IL-8, MIP-1α, MCP-1, MIP-1β, RANTES; experiment: Cytokine and chemokine assays in cynomolgus monkeys (Example 46); type: in vivo
Description: (§1) Groups, each consisting of two male and two female monkeys, were injected subcutaneously with 25 mg/kg of ISIS 416850, ISIS 449709, ISIS 445522, ISIS 449710, ISIS 449707, ISIS 449711, ISIS 449708, 416858, and ISIS 445531. Antisense oligonucleotide was administered to the monkeys at 25 mg/kg three times per week for week 1 and 25 mg/kg twice per week for weeks 2 to 8. A control group, consisting of two male and two female monkeys was injected subcutaneously with PBS according to the same dosing regimen. Body weights were taken 14 days and 7 days before the start of treatment and were then measured weekly throughout the treatment period. Blood samples were collected 14 days and 5 days before the start of treatment and subsequently several times during the dosing regimen for PT and aPTT measurements, and measurement of various hematologic factors. On day 55, the monkeys were euthanized by exsanguination while under deep anesthesia, and organs harvested for further analysis.
Blood samples obtained from all monkey groups were sent to Pierce Biotechnology (Woburn, Mass.) for measurements of chemokine and cytokine levels. Levels of IL-1β, IL-6, IFN-γ, and TNF-α were measured using the respective primate antibodies and levels of IL-8, MIP-1α, MCP-1, MIP-1β and RANTES were measured using the respective cross-reacting human antibodies. Measurements were taken 14 days before the start of treatment and on day 55, when the monkeys were euthanized.

[4] = Kidney function, BUN, urine protein to creatinine ratio in cynomolgus monkeys (Example 46); type: in vivo; conditions: for Urine protein/creatinine ratio: day 49
Description: as §1
To evaluate the impact of ISIS oligonucleotides on kidney function, urine samples were collected on different days. […] The ratio of urine protein to creatinine in urine samples after antisense oligonucleotide treatment was also calculated for day 49 and results are presented in Table 156. As observed in Tables 155 and 156, there were no significant increases in any of the kidney metabolic markers after antisense oligonucleotide treatment.

[5] = Body and organ weights of cynomolgus monkeys (Example 46); type: in vivo; parameters: Liver weight / Spleen weight / Kidney weight: unit not given here
Description: as §1
Organ weights were taken after the animals were euthanized on day 55, and livers, kidneys and spleens were harvested.

[6] = day-14 (before start of treatment)
[7] = Day −5 (before start of treatment)
[8] = Day −14 (before start of treatment)

## 416825 (antisense GCCCTTCATGTCTAGGTCCA; 5-10-5 gapmer, further chemistry not given here) [compound 416825]
[1]
  Half-Life in the liver: 16 days
Human Factor 11 mRNA; 625 nM
  percent inhibition of human Factor 11 mRNA relative to untreated control cells: 69%
Human Factor 11 mRNA; 1250 nM
  percent inhibition of human Factor 11 mRNA relative to untreated control cells: 84%
Human Factor 11 mRNA; 2500 nM
  percent inhibition of human Factor 11 mRNA relative to untreated control cells: 91%
Human Factor 11 mRNA; 5000 nM
  percent inhibition of human Factor 11 mRNA relative to untreated control cells: 94%
Human Factor 11 mRNA; 10000 nM
  percent inhibition of human Factor 11 mRNA relative to untreated control cells: 96%
Human Factor 11 mRNA; 20000 nM
  percent inhibition of human Factor 11 mRNA relative to untreated control cells: 97%
[2]; 2 weeks
  Percent change in kidney weight: −12%
  Percent change in liver weight: +5%
  Percent change in spleen weight: −12%
[2]; 4 weeks
  Percent change in kidney weight: −12%
  Percent change in liver weight: +22%
  Percent change in spleen weight: +19%
[2]; 6 weeks
  Percent change in kidney weight: −11%
  Percent change in liver weight: +13%
  Percent change in spleen weight: +21%

## 416826 (antisense ATGCCCTTCATGTCTAGGTC; 5-10-5 gapmer, further chemistry not given here) [compound 416826]
[1]
  Half-Life in the liver: 13 days
Human Factor 11 mRNA; 625 nM
  percent inhibition of human Factor 11 mRNA relative to untreated control cells: 67%
Human Factor 11 mRNA; 1250 nM
  percent inhibition of human Factor 11 mRNA relative to untreated control cells: 82%
Human Factor 11 mRNA; 2500 nM
  percent inhibition of human Factor 11 mRNA relative to untreated control cells: 89%
Human Factor 11 mRNA; 5000 nM
  percent inhibition of human Factor 11 mRNA relative to untreated control cells: 92%
Human Factor 11 mRNA; 10000 nM
  percent inhibition of human Factor 11 mRNA relative to untreated control cells: 95%
Human Factor 11 mRNA; 20000 nM
  percent inhibition of human Factor 11 mRNA relative to untreated control cells: 97%
[2]; 2 weeks
  Percent change in kidney weight: −13%
  Percent change in liver weight: +10%
  Percent change in spleen weight: −12%
[2]; 4 weeks
  Percent change in kidney weight: −7%
  Percent change in liver weight: +32%
  Percent change in spleen weight: −5%
[2]; 6 weeks
  Percent change in kidney weight: −22%
  Percent change in liver weight: +33%
  Percent change in spleen weight: +22%

## ISIS 449710: 3-8-3, 4-8-4, 2-10-2, 3-10-3 or 4-10-4 MOE microwalk gapmer (Table 46) (antisense e[5mC]*eA*e[5mC]*dA*dG*dT*dT*dT*d[5mC]*dT*dG*dG*d[5mC]*eA*eG*eG)
[3]; day 55
  IFN-γ level: 176 pg/mL
  IL-1ß level: 286 pg/mL
  IL-6 level: 2 pg/mL
  IL-8 level: 348 pg/mL
  MCP-1 level: 474 pg/mL
  MIP-1ß level: 53 pg/mL
  MIP-1α level: 27 pg/mL
  RANTES level: 22656 pg/mL
  TNF-α level: 26 pg/mL
[3]; [6]
  IFN-γ level: 1115 pg/mL
  IL-1ß level: 271 pg/mL
  IL-6 level: 7 pg/mL
  IL-8 level: 29 pg/mL
  MCP-1 level: 409 pg/mL
  MIP-1ß level: 18 pg/mL
  MIP-1α level: 20 pg/mL
  RANTES level: 1215 pg/mL
  TNF-α level: 72 pg/mL
[4]; Day 31
  BUN levels: 19 mg/dL
[4]; Day 55
  BUN levels: 23 mg/dL
[4]; [7]
  BUN levels: 19 mg/dL
[4]; [8]
  BUN levels: 19 mg/dL
[4]
  Urine protein/creatinine ratio: 0.00
[5]; day 1
  body weight: 2131 g
[5]; day 8
  body weight: 2120 g
[5]; day 15
  body weight: 2145 g
[5]; day 22
  body weight: 2177 g
[5]; day 29
  body weight: 2149 g
[5]; day 36
  body weight: 2180 g
[5]; day 43
  body weight: 2227 g
[5]; day 50
  body weight: 2201 g
[5]; day 55, after euthanasia
  Kidney weight: 0.58
  Liver weight: 2.6
  Spleen weight: 0.24
[5]; day −7
  body weight: 2114 g
[5]; day −14
  body weight: 2097 g

## ISIS 449711: 3-8-3, 4-8-4, 2-10-2, 3-10-3 or 4-10-4 MOE microwalk gapmer (Table 46) (antisense eA*e[5mC]*dA*dG*dT*dT*dT*d[5mC]*dT*dG*dG*d[5mC]*eA*eG)
[3]; day 55
  IFN-γ level: 22 pg/mL
  IL-1ß level: 146 pg/mL
  IL-6 level: 7 pg/mL
  IL-8 level: 110 pg/mL
  MCP-1 level: 469 pg/mL
  MIP-1ß level: 91 pg/mL
  MIP-1α level: 17 pg/mL
  RANTES level: 3029 pg/mL
  TNF-α level: 31 pg/mL
[3]; [6]
  IFN-γ level: 29 pg/mL
  IL-1ß level: 79 pg/mL
  IL-6 level: 2 pg/mL
  IL-8 level: 156 pg/mL
  MCP-1 level: 264 pg/mL
  MIP-1ß level: 24 pg/mL
  MIP-1α level: 20 pg/mL
  RANTES level: 3687 pg/mL
  TNF-α level: 6 pg/mL
[4]; Day 31
  BUN levels: 20 mg/dL
[4]; Day 55
  BUN levels: 23 mg/dL
[4]; [7]
  BUN levels: 22 mg/dL
[4]; [8]
  BUN levels: 26 mg/dL
[4]
  Urine protein/creatinine ratio: 0.01
[5]; cynomolgus monkeys, 25 mg/kg, day 55, compared to the PBS control
  Spleen weight: caused increase in spleen weight
[5]; day 1
  body weight: 2123 g
[5]; day 8
  body weight: 2123 g
[5]; day 15
  body weight: 2103 g
[5]; day 22
  body weight: 2171 g
[5]; day 29
  body weight: 2203 g
[5]; day 36
  body weight: 2227 g
[5]; day 43
  body weight: 2251 g
[5]; day 50
  body weight: 2227 g
[5]; day 55, after euthanasia
  Kidney weight: 0.54
  Liver weight: 2.6
  Spleen weight: 0.32
[5]; day −7
  body weight: 2105 g
[5]; day −14
  body weight: 2049 g
